According to patent publication US20230256095A1, “DYES FOR USE IN A METHOD OF TREATMENT OF VITREOUS OPACITY-RELATED DISEASES” (UNIVERSITEIT GENT, priority 2020, published 2023):

Target: T1, type I collagen fibers (Rattus norvegicus, UniProt P02454+P02466)
T1 construct: type I collagen from the rat tail; purchased GIBCO; host or cells: rat tail (tissue-derived)
Assay: Photo-ablation of artificial floaters with nanosecond laser
Settings: 0.1 mg/ml as printed
Experimental: Collagen fibers were prepared from type I collagen from the rat tail (GIBCO; concentration of 3 mg/ml) as described in Sauvage et al., 2019, ACS Nano, 13, 8401-8416. 5 ml of PBS was pipetted in a 15 ml falcon tube. 330 μL of the PBS solution was replaced by 330 μL collagen type I and the solution was vortexed. Sodium hydroxide (0.1 M) (VWR, Radnor, USA) was added to the acid solution of collagen to adjust pH to 7.4. The solution was vortexed again and placed for one hour in the incubator at 37° C. The final concentration of the collagen was 0.2 mg/ml.
First, dark-field microscopy imaging was performed to locate and align the nanosecond laser (Opolette HE 355 LD, OPOTEK Inc., CA, USA) on the artificial collagen fibers in the sample. Samples of either artificial or human opacities treated with TB, ICG and ICG nanoparticles were then illuminated with the laser (<7 ns). The wavelength of the laser light was 561 nm and the energy was set at ±800 μJ. A beam expander (#GBE05-A, Thorlabs) combined with iris diaphragm (#D37SZ, Thorlabs) were used to adjust the diameter of the laser beam to 150 μm (so that 800 μJ corresponded to a laser fluence of 4.5 J/cm^2). The laser pulse energy was monitored by an energy meter (J-25 MB-HE&LE, Energy Max-USB/RS sensors, Coherent) synchronized with the pulsed-laser. The set-up was made in such way to illuminate the sample shot by shot. Videos of the sample were made during illumination with NIS software. Same experiments were performed with human opacities Comparison Between Free ICG, PAH-ICG NPs and HSA-ICG NPs in Water and Bovine Vitreous.

T1 sequence (P02454 152-1207 limits assumed): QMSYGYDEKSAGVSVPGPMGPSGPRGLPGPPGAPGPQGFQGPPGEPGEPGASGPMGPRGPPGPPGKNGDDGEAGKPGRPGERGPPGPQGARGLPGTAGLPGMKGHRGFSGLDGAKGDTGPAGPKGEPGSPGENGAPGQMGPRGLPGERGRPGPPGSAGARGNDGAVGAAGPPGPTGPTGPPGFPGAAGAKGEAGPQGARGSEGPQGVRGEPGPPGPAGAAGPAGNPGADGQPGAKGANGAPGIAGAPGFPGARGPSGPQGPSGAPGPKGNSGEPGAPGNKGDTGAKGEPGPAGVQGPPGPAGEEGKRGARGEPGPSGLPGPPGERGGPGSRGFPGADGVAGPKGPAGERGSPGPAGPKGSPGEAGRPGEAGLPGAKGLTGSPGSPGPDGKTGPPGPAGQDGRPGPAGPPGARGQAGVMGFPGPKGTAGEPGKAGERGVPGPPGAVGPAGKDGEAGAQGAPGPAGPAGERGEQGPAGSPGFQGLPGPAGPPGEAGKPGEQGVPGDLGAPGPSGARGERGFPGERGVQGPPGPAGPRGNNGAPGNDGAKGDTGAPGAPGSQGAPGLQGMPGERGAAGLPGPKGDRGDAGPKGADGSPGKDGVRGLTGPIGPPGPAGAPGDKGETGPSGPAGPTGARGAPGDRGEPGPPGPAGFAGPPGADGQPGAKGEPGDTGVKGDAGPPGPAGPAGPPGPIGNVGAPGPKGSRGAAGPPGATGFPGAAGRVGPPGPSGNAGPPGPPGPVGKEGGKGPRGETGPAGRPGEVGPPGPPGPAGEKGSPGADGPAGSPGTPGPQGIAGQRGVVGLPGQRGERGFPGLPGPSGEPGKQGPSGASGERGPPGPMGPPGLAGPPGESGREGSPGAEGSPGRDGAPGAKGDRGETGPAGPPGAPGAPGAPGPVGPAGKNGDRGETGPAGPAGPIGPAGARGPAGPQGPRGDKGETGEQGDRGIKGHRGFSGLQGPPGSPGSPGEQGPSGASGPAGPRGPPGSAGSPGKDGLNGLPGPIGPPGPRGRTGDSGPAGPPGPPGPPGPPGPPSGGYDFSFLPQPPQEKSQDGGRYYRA
T1 sequence (P02466 86-1125 limits assumed): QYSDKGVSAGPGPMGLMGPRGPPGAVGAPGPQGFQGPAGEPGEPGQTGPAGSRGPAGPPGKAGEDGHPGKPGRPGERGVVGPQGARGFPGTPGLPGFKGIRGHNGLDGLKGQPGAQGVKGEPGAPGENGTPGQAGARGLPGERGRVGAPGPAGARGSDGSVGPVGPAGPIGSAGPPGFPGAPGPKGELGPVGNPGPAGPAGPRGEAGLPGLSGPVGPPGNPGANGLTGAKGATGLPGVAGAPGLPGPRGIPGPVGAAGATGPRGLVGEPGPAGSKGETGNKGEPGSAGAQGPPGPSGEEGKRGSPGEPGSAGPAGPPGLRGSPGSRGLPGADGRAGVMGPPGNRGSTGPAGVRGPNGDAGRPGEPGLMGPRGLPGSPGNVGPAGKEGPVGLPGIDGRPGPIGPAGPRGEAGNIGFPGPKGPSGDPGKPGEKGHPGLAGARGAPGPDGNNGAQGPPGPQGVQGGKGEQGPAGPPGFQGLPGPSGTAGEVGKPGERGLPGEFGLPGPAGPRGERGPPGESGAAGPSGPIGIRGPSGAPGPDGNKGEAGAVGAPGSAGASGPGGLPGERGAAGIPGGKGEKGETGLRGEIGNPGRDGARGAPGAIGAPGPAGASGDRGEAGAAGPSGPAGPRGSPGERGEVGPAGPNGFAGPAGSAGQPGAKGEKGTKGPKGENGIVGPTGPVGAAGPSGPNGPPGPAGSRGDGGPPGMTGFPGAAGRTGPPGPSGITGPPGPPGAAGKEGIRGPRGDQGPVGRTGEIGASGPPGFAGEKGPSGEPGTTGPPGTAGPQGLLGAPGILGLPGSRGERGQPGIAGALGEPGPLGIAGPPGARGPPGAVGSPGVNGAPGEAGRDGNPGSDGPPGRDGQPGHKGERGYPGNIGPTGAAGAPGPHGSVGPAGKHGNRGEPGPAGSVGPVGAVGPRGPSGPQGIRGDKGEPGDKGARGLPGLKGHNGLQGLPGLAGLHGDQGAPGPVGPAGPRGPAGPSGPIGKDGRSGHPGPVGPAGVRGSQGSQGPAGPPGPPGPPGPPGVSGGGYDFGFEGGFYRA

Cc1cc(-c2ccc(/N=N/c3c(S(=O)(=O)O)cc4cc(S(=O)(=O)O)cc(N)c4c3O)c(C)c2)ccc1/N=N/c1c(S(=O)(=O)O)cc2cc(S(=O)(=O)O)cc(N)c2c1O [free TB, Trypan Blue]
binding and destruction of type I collagen fibers: can bind and efficiently destroy type I collagen fibers
